# Results: patent publication US9040518B2, “Chemical compounds” (GlaxoSmithKline LLC, priority 2010, dated 2015)
# Structures can show the parent of a compound that is named as a salt.
# Biological target: ileal bile acid cotransporter (iBAT) (Homo sapiens (Human), UniProt Q12908)
# Assay: Human iBAT inhibition: [3H]-taurocholate uptake into HEK293 cells expressing human iBAT
# Type: cell-based
# Details: HEK293 cells transduced with human iBAT Bacmam virus, 90 minutes at ambient temperature, mean of at least 2 datapoints
# Experimental: Method for Determination of Human iBAT Inhibition:
# In preparation for measurement of bile acid uptake into cells expressing the ileal bile acid cotransporter (iBAT), HEK293 cells were cultured in DMEM/F12 supplemented with 10% FBS. Twenty four hours prior to running an experiment, cells were harvested when at a confluence of 80-90%. Cells were seeded in poly-d-lysine coated plates at 50,000 cells per well, and human iBAT Bacmam virus was added such that each well contains 3.67×10e6 pfu (73.4pfu/cell). Each assay plate was covered with Breathe Easy Seal and placed in an incubator for 24 hours to allow expression of the transporter.
# On the day of the uptake experiment, 10 mM HEPES was added to Hank's Balanced Salt Solution, and the pH was adjusted to 7.4 with TRIS (HBSSH). The assay buffer was prepared by adding […] [^3H]-taurocholate and 10 μM cold taurocholate to room temperature HBSSH. A separate washing buffer was prepared by adding 10 μM cold taurocholate to HBSSH (˜30 ml per assay plate) and placed on ice. Using 100% DMSO, 8 point, 3-fold dilution curves for each test compound was prepared starting at 200 μM. Similarly, an 8 point dose response curve was prepared of the control compound [(3R,5R)-3-butyl-3-ethyl-7,8-bis(methyloxy)-5-phenyl-2,3,4,5-tetrahydro-1,4-benzothiazepine 1,1-dioxide (Brieaddy, L. E. WO9605188, 1996)] starting at 1.8 mM. Drug plates were created by adding 3 μL of each concentration to a v-bottom 96-well plate then diluted 60-fold with 177 μL of assay buffer. Plates were removed from the incubator and allowed to cool to ambient temperature. Media was aspirated, and wells were washed once with 300 μL HBSSH. 50 μL of each dose response curve concentration was added in triplicate by column to the assay plates, reserving column 10 for control (assay buffer+1.67% DMSO) and columns 11 and 12 for the control compound. Plates were incubated at ambient temperature for 90 minutes then the plates were aspirated then washed 1× with 300 μL of wash buffer. 220 μL of Microscint 20 was added to each well, and the plates were sealed. The amount of [^3H]-taurocholate in cell lysate was quantitated using a microplate scintillation counter on the following day.
# IC50's can be generated using the formula, y=(Vmax*x^n)/(K^n+x^n).
# Chain of ileal bile acid cotransporter (iBAT) (Q12908 whole entry): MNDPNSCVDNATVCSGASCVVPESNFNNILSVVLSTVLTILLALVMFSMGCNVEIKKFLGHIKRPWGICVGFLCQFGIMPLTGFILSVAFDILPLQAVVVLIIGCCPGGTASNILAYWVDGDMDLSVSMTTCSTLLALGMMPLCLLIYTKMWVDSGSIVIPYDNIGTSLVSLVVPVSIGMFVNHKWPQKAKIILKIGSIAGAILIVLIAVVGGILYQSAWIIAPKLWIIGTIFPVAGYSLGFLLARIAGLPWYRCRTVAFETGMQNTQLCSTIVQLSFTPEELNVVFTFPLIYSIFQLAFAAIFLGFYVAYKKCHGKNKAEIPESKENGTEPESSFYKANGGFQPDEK
row,Structure (SMILES),IC50 [nM]
1,"CCCC[C@]1(CC)CS(=O)(=O)c2cc(CS(=O)(=O)O)c(OC)cc2[C@@H](c2ccccc2)N1 [Example 5, [3R,5R)-3-butyl-3-ethyl-7-(methyloxy)-1,1-dioxido-5-phenyl-2,3,4,5-tetrahydro-1,4-benzothiazepin-8-yl]methanesulfonic acid trifluoroacetate salt]",4
2,"CCCC[C@]1(CC)CS(=O)(=O)c2cc(CN(O)CC(=O)O)c(OC)cc2[C@@H](c2ccccc2)N1 [Example 48, N-{[(3R,5R)-3-butyl-3-ethyl-7-(methyloxy)-1,1-dioxido-5-phenyl-2,3,4,5-tetrahydro-1,4-benzothiazepin-8-yl]methyl}-N-hydroxyglycine]",17
3,"CCCC[C@]1(CC)CS(=O)(=O)c2cc(C(CC(=O)O)CC(=O)O)c(OC)cc2[C@@H](c2ccccc2)N1 [Example 72, 3-[(3R,5R)-3-butyl-3-ethyl-7-(methyloxy)-1,1-dioxido-5-phenyl-2,3,4,5-tetrahydro-1,4-benzothiazepin-8-yl]pentanedioic acid]",> 3000
4,"CCCC[C@]1(CC)CS(=O)(=O)c2cc(CNC(=O)CNC(CC(=O)O)CC(=O)O)c(OC)cc2[C@@H](c2ccccc2)N1 [Example 41, 3-{[2-({[(3R,5R)-3-butyl-3-ethyl-7-(methyloxy)-1,1-dioxido-5-phenyl-2,3,4,5-tetrahydro-1,4-benzothiazepin-8-yl]methyl}amino)-2-oxoethyl]amino}pentanedioic acid trifluoroacetate salt]",3330
5,"CCCC[C@]1(CC)CS(=O)(=O)c2cc(CN[C@@H](CCCCN(C)C)C(=O)O)c(OC)cc2[C@@H](c2ccccc2)N1 [Example 59, N^2-{[(3R,5R)-3-butyl-3-ethyl-7-(methyloxy)-1,1-dioxido-5-phenyl-2,3,4,5-tetrahydro-1,4-benzothiazepin-8-yl]methyl}-N^6,N^6-dimethyl-L-lysine ammonium salt]",3330
6,"CCCC[C@]1(CC)CS(=O)(=O)c2cc(CNC(=O)CNCC(=O)O)c(OC)cc2[C@@H](c2ccccc2)N1 [Example 39, N-[2-({[(3R,5R)-3-butyl-3-ethyl-7-(methyloxy)-1,1-dioxido-5-phenyl-2,3,4,5-tetrahydro-1,4-benzothiazepin-8-yl]methyl}amino)-2-oxoethyl]glycine trifluoroacetate salt]",619
7,"CCCC[C@]1(CC)CS(=O)(=O)c2cc(CP(=O)(O)O)c(OC)cc2[C@H](c2ccccc2)N1 [Example 45, {[(3R,5S)-3-butyl-3-ethyl-7-(methyloxy)-1,1-dioxido-5-phenyl-2,3,4,5-tetrahydro-1,4-benzothiazepin-8-yl]methyl}phosphonic acid trifluoroacetate salt]",1950
8,"CCCC[C@]1(CC)CS(=O)(=O)c2cc(CNC(=O)CNCCP(=O)(O)O)c(OC)cc2[C@@H](c2ccccc2)N1 [Example 40, (2-{[2-({[(3R,5R)-3-butyl-3-ethyl-7-(methyloxy)-1,1-dioxido-5-phenyl-2,3,4,5-tetrahydro-1,4-benzothiazepin-8-yl]methyl}amino)-2-oxoethyl]amino}ethyl)phosphonic acid trifluoroacetate salt]",4670
9,"CCCC[C@]1(CC)CS(=O)(=O)c2cc(CCP(=O)(O)O)c(OC)cc2[C@@H](c2ccccc2)N1 [Example 51, {2-[(3R,5R)-3-butyl-3-ethyl-7-(methyloxy)-1,1-dioxido-5-phenyl-2,3,4,5-tetrahydro-1,4-benzothiazepin-8-yl]ethyl}phosphonic acid bis-ammonium salt]",51
10,"CCCC[C@]1(CC)CS(=O)(=O)c2cc(C(=O)N(CC(=O)O)CC(=O)O)c(OC)cc2[C@@H](c2ccccc2)N1 [Example 4, 2,2′-({[(3R,5R)-3-butyl-3-ethyl-7-(methyloxy)-1,1-dioxido-5-phenyl-2,3,4,5-tetrahydro-1,4-benzothiazepin-8-yl]carbonyl}imino)diacetic acid hydrochloride]",2540
11,"CCCC[C@]1(CC)CS(=O)(=O)c2cc(CN(CP(=O)(O)O)CP(=O)(O)OCC)c(OC)cc2[C@@H](c2ccccc2)N1 [Example 61, [({[(3R,5R)-3-butyl-3-ethyl-7-(methyloxy)-1,1-dioxido-5-phenyl-2,3,4,5-tetrahydro-1,4-benzothiazepin-8-yl]methyl}{[(ethyloxy)(hydroxy)phosphoryl]methyl}amino)methyl]phosphonic acid triammonium salt]",3360
12,"CCCC[C@]1(CC)CS(=O)(=O)c2cc(CNCCCC(=O)O)c(OC)cc2[C@@H](c2ccccc2)N1 [Example 30, 4-({[(3R,5R)-3-butyl-3-ethyl-7-(methyloxy)-1,1-dioxido-5-phenyl-2,3,4,5-tetrahydro-1,4-benzothiazepin-8-yl]methyl}amino)butanoic acid trifluoroacetate salt]",1290
13,"CCCCC1(CCCC)CS(=O)(=O)c2cc(CNC(CC(=O)O)CC(=O)O)c(OC)cc2C(c2ccccc2)N1 (stereo not shown) [Example 65, 3-({[3,3-dibutyl-7-(methyloxy)-1,1-dioxido-5-phenyl-2,3,4,5-tetrahydro-1,4-benzothiazepin-8-yl]methyl}amino)pentanedioic acid trifluoroacetate salt]",337
14,"CCCC[C@]1(CC)CS(=O)(=O)c2cc(CNC(=O)CP(=O)(O)O)c(OC)cc2[C@@H](c2ccccc2)N1 [Example 38, [2-({[(3R,5R)-3-butyl-3-ethyl-7-(methyloxy)-1,1-dioxido-5-phenyl-2,3,4,5-tetrahydro-1,4-benzothiazepin-8-yl]methyl}amino)-2-oxoethyl]phosphonic acid trifluoroacetate salt]",249
15,"CCCC[C@]1(CC)CS(=O)(=O)c2cc(CCC(=O)NCCS(=O)(=O)O)c(OC)cc2[C@@H](c2ccccc2)N1 [Example 15, 2-({3-[(3R,5R)-3-butyl-3-ethyl-7-(methyloxy)-1,1-dioxido-5-phenyl-2,3,4,5-tetrahydro-1,4-benzothiazepin-8-yl]propanoyl}amino)ethanesulfonic acid]",504
16,"CCCC[C@]1(CC)CS(=O)(=O)c2cc(CP(=O)(O)O)c(OC)cc2[C@@H](c2ccccc2)N1 [Example 6, {[(3R,5R)-3-butyl-3-ethyl-7-(methyloxy)-1,1-dioxido-5-phenyl-2,3,4,5-tetrahydro-1,4-benzothiazepin-8-yl]methyl}phosphonic acid hydrochloride salt]",23
17,"CCCC[C@]1(CC)CS(=O)(=O)c2cc(CNCP(=O)(O)O)c(OC)cc2[C@@H](c2ccccc2)N1 [Example 62, [({[(3R,5R)-3-butyl-3-ethyl-7-(methyloxy)-1,1-dioxido-5-phenyl-2,3,4,5-tetrahydro-1,4-benzothiazepin-8-yl]methyl}amino)methyl]phosphonic acid trifluoroacetate salt]",3900
18,"CCCC[C@]1(CC)CS(=O)(=O)c2cc(CN[C@@H](CC(=O)O)C(=O)O)c(OC)cc2[C@@H](c2ccccc2)N1 [Example 27, N-{[(3R,5R)-3-butyl-3-ethyl-7-(methyloxy)-1,1-dioxido-5-phenyl-2,3,4,5-tetrahydro-1,4-benzothiazepin-8-yl]methyl}-L-aspartic acid trifluoroacetate salt]",47
19,"CCCC[C@]1(CC)CS(=O)(=O)c2cc(CN3CCCC3=O)c(OC)cc2[C@@H](c2ccccc2)N1 [Example 31, 1-{[(3R,5R)-3-butyl-3-ethyl-7-(methyloxy)-1,1-dioxido-5-phenyl-2,3,4,5-tetrahydro-1,4-benzothiazepin-8-yl]methyl}-2-pyrrolidinone trifluoroacetate salt]",407
